± gives the expanded uncertainty stated by the source.
Tests used:
[1] = mn = molality of the nth substance listed, in mol/kg; settings: 101 kPa, Liquid; for speed of sound: Sing-around technique in a fixed-path interferometer; for mass density: Vibrating tube method
[2] = cn = amount concentration of the nth substance listed, in mol/dm3; settings: 101 kPa, Liquid; for speed of sound: Sing-around technique in a fixed-path interferometer; for mass density: Vibrating tube method

Cc1onc(-c2c(F)cccc2Cl)c1C(=O)N[C@@H]1C(=O)N2[C@@H]1SC(C)(C)[C@@H]2C(=O)[O-].[Na+] + O
[1]
Settings	mass density [kg/m3]	speed of sound [m/s]
298.15 K, m1 = 0.03508	1003.21 ± 1	1503 ± 0.77
298.15 K, m1 = 0.05711	1007 ± 1	1506.4 ± 0.77
298.15 K, m1 = 0.07305	1009.68 ± 1	1508.6 ± 0.77
298.15 K, m1 = 0.09335	1013.04 ± 1	1511.2 ± 0.78
298.15 K, m1 = 0.1142	1016.42 ± 1	1513.7 ± 0.78
298.15 K, m1 = 0.1343	1019.68 ± 1	1515.8 ± 0.78
298.15 K, m1 = 0.148	1021.89 ± 1	1517.2 ± 0.78
298.15 K, m1 = 0.1675	1025.02 ± 1	1518.9 ± 0.79
298.15 K, m1 = 0.1812	1027.16 ± 1	1520.1 ± 0.79
303.15 K, m1 = 0.03508	1001.74 ± 1	1514.8 ± 0.77
303.15 K, m1 = 0.05711	1005.49 ± 1	1517.8 ± 0.78
303.15 K, m1 = 0.07305	1008.14 ± 1	1519.9 ± 0.78
303.15 K, m1 = 0.09335	1011.46 ± 1	1522.2 ± 0.78
303.15 K, m1 = 0.1142	1014.8 ± 1	1524.4 ± 0.78
303.15 K, m1 = 0.1343	1018.04 ± 1	1526.4 ± 0.79
303.15 K, m1 = 0.148	1020.23 ± 1	1527.6 ± 0.79
303.15 K, m1 = 0.1675	1023.33 ± 1	1529.2 ± 0.79
303.15 K, m1 = 0.1812	1025.46 ± 1	1530.2 ± 0.79
308.15 K, m1 = 0.03508	1000.05 ± 1	1524.9 ± 0.78
308.15 K, m1 = 0.05711	1003.77 ± 1	1527.6 ± 0.78
308.15 K, m1 = 0.07305	1006.39 ± 1	1529.5 ± 0.78
308.15 K, m1 = 0.09335	1009.67 ± 1	1531.6 ± 0.78
308.15 K, m1 = 0.1142	1012.98 ± 1	1533.5 ± 0.79
308.15 K, m1 = 0.1343	1016.18 ± 1	1535.3 ± 0.79
308.15 K, m1 = 0.148	1018.35 ± 1	1536.4 ± 0.79
308.15 K, m1 = 0.1675	1021.43 ± 1	1537.8 ± 0.79
308.15 K, m1 = 0.1812	1023.54 ± 1	1538.7 ± 0.8
313.15 K, m1 = 0.03508	998.174 ± 1	1533.5 ± 0.78
313.15 K, m1 = 0.05711	1001.85 ± 1	1535.9 ± 0.78
313.15 K, m1 = 0.07305	1004.44 ± 1	1537.5 ± 0.78
313.15 K, m1 = 0.09335	1007.69 ± 1	1539.4 ± 0.79
313.15 K, m1 = 0.1142	1010.97 ± 1	1541.1 ± 0.79
313.15 K, m1 = 0.1343	1014.14 ± 1	1542.7 ± 0.79
313.15 K, m1 = 0.148	1016.29 ± 1	1543.7 ± 0.79
313.15 K, m1 = 0.1675	1019.34 ± 1	1544.9 ± 0.8
313.15 K, m1 = 0.1812	1021.43 ± 1	1545.7 ± 0.8
318.15 K, m1 = 0.03508	996.11 ± 1	1540.5 ± 0.78
318.15 K, m1 = 0.05711	999.746 ± 1	1542.6 ± 0.78
318.15 K, m1 = 0.07305	1002.31 ± 1	1544.1 ± 0.79
318.15 K, m1 = 0.09335	1005.53 ± 1	1545.7 ± 0.79
318.15 K, m1 = 0.1142	1008.77 ± 1	1547.3 ± 0.79
318.15 K, m1 = 0.1343	1011.91 ± 1	1548.7 ± 0.79
318.15 K, m1 = 0.148	1014.05 ± 1	1549.5 ± 0.8
318.15 K, m1 = 0.1675	1017.07 ± 1	1550.6 ± 0.8
318.15 K, m1 = 0.1812	1019.15 ± 1	1551.4 ± 0.8
323.15 K, m1 = 0.03508	993.877 ± 1	1546.1 ± 0.78
323.15 K, m1 = 0.05711	997.477 ± 1	1548 ± 0.79
323.15 K, m1 = 0.07305	1000.02 ± 1	1549.2 ± 0.79
323.15 K, m1 = 0.09335	1003.2 ± 1	1550.7 ± 0.79
323.15 K, m1 = 0.1142	1006.42 ± 1	1552.1 ± 0.79
323.15 K, m1 = 0.1343	1009.52 ± 1	1553.3 ± 0.8
323.15 K, m1 = 0.148	1011.64 ± 1	1554 ± 0.8
323.15 K, m1 = 0.1675	1014.64 ± 1	1555 ± 0.8
323.15 K, m1 = 0.1812	1016.7 ± 1	1555.7 ± 0.8

[Cl-].[Na+] [sodium chloride] + O
[2]
Settings	mass density [kg/m3]	speed of sound [m/s]
298.15 K, c1 = 0.0251	998.068 ± 1	–
298.15 K, c1 = 0.0586	999.427 ± 1	1501.1 ± 0.76
298.15 K, c1 = 0.1021	1001.16 ± 1	1503.8 ± 0.76
298.15 K, c1 = 0.1483	1002.99 ± 1	1506.4 ± 0.77
298.15 K, c1 = 0.2047	1005.19 ± 1	1509.4 ± 0.77
298.15 K, c1 = 0.2543	1007.12 ± 1	1511.8 ± 0.77
303.15 K, c1 = 0.0251	996.654 ± 1	1511.3 ± 0.77
303.15 K, c1 = 0.0586	997.998 ± 1	1513.4 ± 0.77
303.15 K, c1 = 0.1021	999.715 ± 1	1516 ± 0.77
303.15 K, c1 = 0.1483	1001.52 ± 1	1518.5 ± 0.77
303.15 K, c1 = 0.2047	1003.7 ± 1	1521.4 ± 0.77
303.15 K, c1 = 0.2543	1005.61 ± 1	1523.6 ± 0.77
308.15 K, c1 = 0.0251	995.026 ± 1	1521.9 ± 0.77
308.15 K, c1 = 0.0586	996.357 ± 1	1524 ± 0.77
308.15 K, c1 = 0.1021	998.056 ± 1	1526.5 ± 0.77
308.15 K, c1 = 0.1483	999.851 ± 1	1528.9 ± 0.77
308.15 K, c1 = 0.2047	1002.01 ± 1	1531.6 ± 0.78
308.15 K, c1 = 0.2543	1003.9 ± 1	1533.7 ± 0.78
313.15 K, c1 = 0.0251	993.201 ± 1	1531 ± 0.77
313.15 K, c1 = 0.0586	994.523 ± 1	–
313.15 K, c1 = 0.1021	996.208 ± 1	1535.5 ± 0.78
313.15 K, c1 = 0.1483	997.991 ± 1	1537.8 ± 0.78
313.15 K, c1 = 0.2047	1000.14 ± 1	1540.3 ± 0.78
313.15 K, c1 = 0.2543	1002.01 ± 1	1542.3 ± 0.78
318.15 K, c1 = 0.0251	991.192 ± 1	1538.5 ± 0.78
318.15 K, c1 = 0.0586	992.506 ± 1	1540.5 ± 0.78
318.15 K, c1 = 0.1021	994.181 ± 1	1542.8 ± 0.78
318.15 K, c1 = 0.1483	995.954 ± 1	1545.1 ± 0.78
318.15 K, c1 = 0.2047	998.089 ± 1	1547.6 ± 0.78
318.15 K, c1 = 0.2543	999.952 ± 1	–
323.15 K, c1 = 0.0251	989.012 ± 1	1544.6 ± 0.78
323.15 K, c1 = 0.0586	990.317 ± 1	1546.5 ± 0.78
323.15 K, c1 = 0.1021	991.983 ± 1	–
323.15 K, c1 = 0.1483	993.747 ± 1	1551 ± 0.78
323.15 K, c1 = 0.2047	995.872 ± 1	1553.4 ± 0.78
323.15 K, c1 = 0.2543	997.725 ± 1	1555.2 ± 0.78

Reference: the NIST ThermoML archive (doi:10.1021/acs.jced.5b00317)
